Source: ChEMBL document CHEMBL1201862, “PubChem BioAssay data set” (2004)
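Five concentrations, 48 hours, 96-well plates. GI50: concentration for 50% inhibition of growth.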 Activity calls are given as the source filed them. No stated cut-off is given here; in the data, active = GI50 up to about 1.1 µM and inactive = higher.

Legend:
Test in all cases: NCI-60 cell line screen, 48 h
[1] = system: A498
[2] = system: ACHN
[3] = system: HL-60
[4] = system: HOP-62
[5] = system: M14
[6] = system: Malme-3M
[7] = system: NCI-H23
[8] = system: NCI-H460
[9] = system: OVCAR-3
[10] = system: OVCAR-8
[11] = system: PC-3
[12] = system: RPMI-8226
[13] = system: SF-268
[14] = system: SF-539
[15] = system: SK-MEL-2
[16] = system: SK-MEL-5
[17] = system: SW-620
[18] = system: U-251
[19] = system: HOP-92

Measured: GI50

CC(=O)C(=[N+]=[N-])C(=O)N1CCOC1=O
inactive: [1] > 10 µM | [2] > 10 µM | [3] > 10 µM | [4] > 10 µM | [5] > 10 µM | [6] > 10 µM | [7] > 10 µM | [8] > 10 µM | [9] > 10 µM | [10] > 10 µM | [11] > 10 µM | [12] > 10 µM | [13] > 10 µM | [14] > 10 µM | [15] > 10 µM | [16] > 10 µM | [17] > 10 µM | [18] > 10 µM

CNc1nc(=S)[nH]c2sc3c(c12)CCCC3
inactive: [1] > 75 µM | [2] > 75 µM | [3] > 75 µM | [4] > 75 µM | [6] > 75 µM | [7] > 75 µM | [9] > 75 µM | [10] > 75 µM | [11] > 75 µM | [12] > 75 µM | [13] > 75 µM | [15] > 75 µM | [16] > 75 µM | [17] > 75 µM | [18] > 75 µM

Nc1ccccc1CC(O)C(=O)O (configuration not stated)
inactive: [1] > 100 µM | [2] > 100 µM | [3] > 100 µM | [4] > 100 µM | [19] > 100 µM | [5] > 100 µM | [6] > 100 µM | [7] > 100 µM | [8] > 100 µM | [9] > 100 µM | [10] > 100 µM | [11] > 100 µM | [12] > 100 µM | [13] > 100 µM | [14] > 100 µM | [16] > 100 µM | [17] > 100 µM | [18] > 100 µM

Cc1cc(-c2cccc3ccccc23)c(C#N)c(=S)n1C1OC(CO)C(O)C(O)C1O (configuration not stated)
inactive: [1] > 100 µM | [2] > 100 µM | [3] > 100 µM | [4] > 100 µM | [5] > 100 µM | [6] > 100 µM | [7] > 100 µM | [8] > 100 µM | [9] > 100 µM | [10] > 100 µM | [11] > 100 µM | [14] > 100 µM | [15] > 100 µM | [16] 67 µM | [17] > 100 µM

CC1(CF)SCc2nc3ccccc3n21 (configuration not stated)
inactive: [1] > 100 µM | [2] > 100 µM | [3] > 100 µM | [4] > 100 µM | [19] > 100 µM | [5] > 100 µM | [6] > 100 µM | [7] > 100 µM | [8] > 100 µM | [9] > 100 µM | [10] > 100 µM | [11] > 100 µM | [12] > 100 µM | [13] > 100 µM | [14] > 100 µM | [16] > 100 µM | [17] > 100 µM | [18] > 100 µM

COC(=O)/C(=C(/C)c1ccco1)P(=O)(OC)OC
inactive: [1] > 100 µM | [2] > 100 µM | [4] > 100 µM | [19] > 100 µM | [5] > 100 µM | [6] > 100 µM | [7] > 100 µM | [9] > 100 µM | [10] > 100 µM | [11] > 100 µM | [12] > 100 µM | [13] > 100 µM | [14] > 100 µM | [15] > 100 µM | [16] > 100 µM | [17] > 100 µM | [18] > 100 µM

NC1CNC(=O)c2cscc21 (configuration not stated)
inactive: [1] > 100 µM | [2] > 100 µM | [3] > 100 µM | [19] > 100 µM | [5] > 100 µM | [6] > 100 µM | [7] > 100 µM | [8] > 100 µM | [9] > 100 µM | [11] 53.2 µM | [12] > 100 µM | [13] > 100 µM | [16] > 100 µM | [17] > 100 µM | [18] > 100 µM

CC(C#N)(NO)C(C)(C#N)NO (configuration not stated)
inactive: [1] > 100 µM | [3] > 100 µM | [5] > 100 µM | [6] > 100 µM | [7] > 100 µM | [8] > 100 µM | [9] > 100 µM | [10] > 100 µM | [11] > 100 µM | [12] > 100 µM | [13] > 100 µM | [14] > 100 µM | [15] > 100 µM | [16] > 100 µM | [17] > 100 µM | [18] > 100 µM

[N-]=[N+]=Nc1c(-c2ccccc2)c(=O)n(-c2ccccc2)c2ccccc12
inactive: [1] 77.8 µM | [2] 49.4 µM | [3] > 100 µM | [4] 99.5 µM | [19] 49.4 µM | [5] 62.2 µM | [6] 19.3 µM | [7] 80.5 µM | [8] 46.5 µM | [9] 52 µM | [10] 90.2 µM | [11] 32.4 µM | [12] > 100 µM | [13] 13.2 µM | [14] > 100 µM | [17] > 100 µM | [18] 52.1 µM

O=C(O)c1ccc(NC(NC(=O)C(C(F)(F)F)C(F)(F)F)(C(F)(F)F)C(F)(F)F)cc1
inactive: [1] > 100 µM | [2] > 100 µM | [3] > 100 µM | [5] > 100 µM | [7] > 100 µM | [10] > 100 µM | [11] > 100 µM | [12] > 100 µM | [13] > 100 µM | [14] > 100 µM | [15] > 100 µM | [16] > 100 µM | [17] > 100 µM | [18] > 100 µM

Cc1ccc(S(=O)(=O)NCCN(CCNS(=O)(=O)c2ccc(C)cc2)S(=O)(=O)c2ccc(C)cc2)cc1
inactive: [1] > 100 µM | [2] 60 µM | [4] 47.4 µM | [5] > 100 µM | [6] 15.4 µM | [7] > 100 µM | [8] > 100 µM | [9] > 100 µM | [10] 94.6 µM | [11] > 100 µM | [12] 56.2 µM | [13] 47.4 µM | [14] 42.5 µM | [15] > 100 µM | [16] 43.9 µM | [17] > 100 µM | [18] 28.9 µM

NCCNCCNc1ccc(NCCNCCN)c2c1C(=O)c1c(O)ccc(O)c1C2=O
inactive: [1] 70 µM | [2] > 100 µM | [4] > 100 µM | [19] > 100 µM | [5] > 100 µM | [6] > 100 µM | [7] > 100 µM | [8] 8.75 µM | [9] > 100 µM | [10] > 100 µM | [11] > 100 µM | [12] > 100 µM | [13] > 100 µM | [14] > 100 µM | [16] > 100 µM | [17] > 100 µM | [18] > 100 µM
